Test results as given in the supplement of paper PMC10307832.

Experiments:
Assay in all cases: relative viability (nuclei count vs DMSO), 5 days (fraction); higher = more cells survive
Irinotecan + OSI-027 = compound: CCc1c2c(nc3ccc(OC(=O)N4CCC(N5CCCCC5)CC4)cc13)-c1cc3c(c(=O)n1C2)COC(=O)[C@]3(O)CC [Irinotecan] + COc1cccc2cc(-c3nc([C@H]4CC[C@H](C(=O)O)CC4)n4ncnc(N)c34)[nH]c12 [OSI-027] (partner 0.5 µM)
How it was run: (§1)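 Relative viability is defined as nuclei in treated wells over nuclei in vehicle wells. Duplicate plates were run and medians reported. Lung cancer cell lines in 1536-well plates were dosed by pin tool one day after seeding, with one drug or with a fixed anchor-drug dose plus five library-drug doses (not always all listed) in √10 steps, and nuclei were counted after 5 days.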

RU-SKI 43 + Dasatinib = compound: CC[C@@H](C)CNCC(=O)N1CCC2=C([C@@H]1COC3=CC=CC(=C3)C)C=CS2 [RU-SKI 43] + Cc1nc(Nc2ncc(C(=O)Nc3c(C)cccc3Cl)s2)cc(N2CCN(CCO)CC2)n1 [Dasatinib] (partner 0.075 µM)
How it was run: as §1

RU-SKI 43 + Luminespib = compound: CC[C@@H](C)CNCC(=O)N1CCC2=C([C@@H]1COC3=CC=CC(=C3)C)C=CS2 [RU-SKI 43] + CCNC(=O)c1noc(-c2cc(C(C)C)c(O)cc2O)c1-c1ccc(CN2CCOCC2)cc1 [Luminespib] (partner 0.01 µM)
How it was run: as §1

MK-8033 + Vorinostat = compound: Cn1cc(-c2cnc3ccc4ccc(CS(=O)(=O)NCc5ccccn5)cc4c(=O)c3c2)cn1 [MK-8033] + O=C(CCCCCCC(=O)Nc1ccccc1)NO [Vorinostat] (partner 1 µM)
How it was run: as §1

NCI-H1944
relative viability (Irinotecan + OSI-027; first compound 0.6325 µM): 0.22
relative viability (Irinotecan + OSI-027; first compound 2 µM): 0.349
relative viability (Irinotecan + OSI-027; first compound 6.325 µM): 0.165
relative viability (Irinotecan + OSI-027; first compound 20 µM): 0.161
relative viability (RU-SKI 43 + Dasatinib; first compound 0.1 µM): 0.209
relative viability (RU-SKI 43 + Dasatinib; first compound 0.3162 µM): 0.223
relative viability (RU-SKI 43 + Dasatinib; first compound 1 µM): 0.213
relative viability (RU-SKI 43 + Dasatinib; first compound 3.162 µM): 0.211
relative viability (RU-SKI 43 + Dasatinib; first compound 10 µM): 0.2
relative viability (RU-SKI 43 + Luminespib; first compound 0.1 µM): 0.643
relative viability (RU-SKI 43 + Luminespib; first compound 0.3162 µM): 0.751
relative viability (RU-SKI 43 + Luminespib; first compound 1 µM): 0.832
relative viability (RU-SKI 43 + Luminespib; first compound 3.162 µM): 0.819
relative viability (RU-SKI 43 + Luminespib; first compound 10 µM): 0.662
relative viability (MK-8033 + Vorinostat; first compound 0.02 µM): 0.6
relative viability (MK-8033 + Vorinostat; first compound 0.06325 µM): 0.579
relative viability (MK-8033 + Vorinostat; first compound 0.2 µM): 0.625
relative viability (MK-8033 + Vorinostat; first compound 0.6325 µM): 0.59
relative viability (MK-8033 + Vorinostat; first compound 2 µM): 0.568

NCI-H1975
relative viability (Irinotecan + OSI-027; first compound 0.6325 µM): 0.558
relative viability (Irinotecan + OSI-027; first compound 2 µM): 0.694
relative viability (Irinotecan + OSI-027; first compound 6.325 µM): 0.439
relative viability (Irinotecan + OSI-027; first compound 20 µM): 0.137
relative viability (RU-SKI 43 + Dasatinib; first compound 0.1 µM): 0.357
relative viability (RU-SKI 43 + Dasatinib; first compound 0.3162 µM): 0.461
relative viability (RU-SKI 43 + Dasatinib; first compound 1 µM): 0.441
relative viability (RU-SKI 43 + Dasatinib; first compound 3.162 µM): 0.356
relative viability (RU-SKI 43 + Dasatinib; first compound 10 µM): 0.401
relative viability (RU-SKI 43 + Luminespib; first compound 0.1 µM): 0.199
relative viability (RU-SKI 43 + Luminespib; first compound 0.3162 µM): 0.172
relative viability (RU-SKI 43 + Luminespib; first compound 1 µM): 0.229
relative viability (RU-SKI 43 + Luminespib; first compound 3.162 µM): 0.157
relative viability (RU-SKI 43 + Luminespib; first compound 10 µM): 0.25
relative viability (MK-8033 + Vorinostat; first compound 0.02 µM): 0.713
relative viability (MK-8033 + Vorinostat; first compound 0.06325 µM): 0.669
relative viability (MK-8033 + Vorinostat; first compound 0.2 µM): 0.634
relative viability (MK-8033 + Vorinostat; first compound 0.6325 µM): 0.695
relative viability (MK-8033 + Vorinostat; first compound 2 µM): 0.752

NCI-H1993
relative viability (Irinotecan + OSI-027; first compound 0.6325 µM): 0.584
relative viability (Irinotecan + OSI-027; first compound 2 µM): 0.491
relative viability (Irinotecan + OSI-027; first compound 6.325 µM): 0.574
relative viability (Irinotecan + OSI-027; first compound 20 µM): 0.587
relative viability (RU-SKI 43 + Dasatinib; first compound 0.1 µM): 0.608
relative viability (RU-SKI 43 + Dasatinib; first compound 0.3162 µM): 0.516
relative viability (RU-SKI 43 + Dasatinib; first compound 1 µM): 0.653
relative viability (RU-SKI 43 + Dasatinib; first compound 3.162 µM): 0.778
relative viability (RU-SKI 43 + Dasatinib; first compound 10 µM): 0.533
relative viability (RU-SKI 43 + Luminespib; first compound 0.1 µM): 0.714
relative viability (RU-SKI 43 + Luminespib; first compound 0.3162 µM): 0.813
relative viability (RU-SKI 43 + Luminespib; first compound 1 µM): 0.982
relative viability (RU-SKI 43 + Luminespib; first compound 3.162 µM): 1.02
relative viability (RU-SKI 43 + Luminespib; first compound 10 µM): 0.825
relative viability (MK-8033 + Vorinostat; first compound 0.02 µM): 0.688
relative viability (MK-8033 + Vorinostat; first compound 0.06325 µM): 0.644
relative viability (MK-8033 + Vorinostat; first compound 0.2 µM): 0.587
relative viability (MK-8033 + Vorinostat; first compound 0.6325 µM): 0.571
relative viability (MK-8033 + Vorinostat; first compound 2 µM): 0.638

NCI-H2009
relative viability (Irinotecan + OSI-027; first compound 0.6325 µM): 0.491
relative viability (Irinotecan + OSI-027; first compound 2 µM): 0.508
relative viability (Irinotecan + OSI-027; first compound 6.325 µM): 0.314
relative viability (Irinotecan + OSI-027; first compound 20 µM): 0.124
relative viability (RU-SKI 43 + Dasatinib; first compound 0.1 µM): 0.314
relative viability (RU-SKI 43 + Dasatinib; first compound 0.3162 µM): 0.296
relative viability (RU-SKI 43 + Dasatinib; first compound 1 µM): 0.324
relative viability (RU-SKI 43 + Dasatinib; first compound 3.162 µM): 0.289
relative viability (RU-SKI 43 + Dasatinib; first compound 10 µM): 0.276
relative viability (RU-SKI 43 + Luminespib; first compound 0.1 µM): 0.981
relative viability (RU-SKI 43 + Luminespib; first compound 0.3162 µM): 1.12
relative viability (RU-SKI 43 + Luminespib; first compound 1 µM): 0.984
relative viability (RU-SKI 43 + Luminespib; first compound 3.162 µM): 1.02
relative viability (RU-SKI 43 + Luminespib; first compound 10 µM): 1.03
relative viability (MK-8033 + Vorinostat; first compound 0.02 µM): 0.678
relative viability (MK-8033 + Vorinostat; first compound 0.06325 µM): 0.689
relative viability (MK-8033 + Vorinostat; first compound 0.2 µM): 0.776
relative viability (MK-8033 + Vorinostat; first compound 0.6325 µM): 0.733
relative viability (MK-8033 + Vorinostat; first compound 2 µM): 0.676

NCI-H2023
relative viability (Irinotecan + OSI-027; first compound 0.6325 µM): 0.319
relative viability (Irinotecan + OSI-027; first compound 2 µM): 0.377
relative viability (Irinotecan + OSI-027; first compound 6.325 µM): 0.238
relative viability (Irinotecan + OSI-027; first compound 20 µM): 0.0537
relative viability (RU-SKI 43 + Dasatinib; first compound 0.1 µM): 0.581
relative viability (RU-SKI 43 + Dasatinib; first compound 0.3162 µM): 0.835
relative viability (RU-SKI 43 + Dasatinib; first compound 1 µM): 0.649
relative viability (RU-SKI 43 + Dasatinib; first compound 3.162 µM): 0.599
relative viability (RU-SKI 43 + Dasatinib; first compound 10 µM): 0.61
relative viability (RU-SKI 43 + Luminespib; first compound 0.1 µM): 0.919
relative viability (RU-SKI 43 + Luminespib; first compound 0.3162 µM): 1
relative viability (RU-SKI 43 + Luminespib; first compound 1 µM): 0.887
relative viability (RU-SKI 43 + Luminespib; first compound 3.162 µM): 0.856
relative viability (RU-SKI 43 + Luminespib; first compound 10 µM): 0.876
relative viability (MK-8033 + Vorinostat; first compound 0.02 µM): 0.857
relative viability (MK-8033 + Vorinostat; first compound 0.06325 µM): 0.44
relative viability (MK-8033 + Vorinostat; first compound 0.2 µM): 0.583
relative viability (MK-8033 + Vorinostat; first compound 0.6325 µM): 0.515
relative viability (MK-8033 + Vorinostat; first compound 2 µM): 0.491

NCI-H2085
relative viability (Irinotecan + OSI-027; first compound 0.6325 µM): 0.435
relative viability (Irinotecan + OSI-027; first compound 2 µM): 0.71
relative viability (Irinotecan + OSI-027; first compound 6.325 µM): 0.568
relative viability (Irinotecan + OSI-027; first compound 20 µM): 0.495
relative viability (RU-SKI 43 + Dasatinib; first compound 0.1 µM): 0.24
relative viability (RU-SKI 43 + Dasatinib; first compound 0.3162 µM): 0.247
relative viability (RU-SKI 43 + Dasatinib; first compound 1 µM): 0.275
relative viability (RU-SKI 43 + Dasatinib; first compound 3.162 µM): 0.234
relative viability (RU-SKI 43 + Dasatinib; first compound 10 µM): 0.262
relative viability (RU-SKI 43 + Luminespib; first compound 0.1 µM): 0.398
relative viability (RU-SKI 43 + Luminespib; first compound 0.3162 µM): 0.481
relative viability (RU-SKI 43 + Luminespib; first compound 1 µM): 0.591
relative viability (RU-SKI 43 + Luminespib; first compound 3.162 µM): 0.431
relative viability (RU-SKI 43 + Luminespib; first compound 10 µM): 0.407
relative viability (MK-8033 + Vorinostat; first compound 0.02 µM): 0.744
relative viability (MK-8033 + Vorinostat; first compound 0.06325 µM): 0.734
relative viability (MK-8033 + Vorinostat; first compound 0.2 µM): 0.691
relative viability (MK-8033 + Vorinostat; first compound 0.6325 µM): 0.835
relative viability (MK-8033 + Vorinostat; first compound 2 µM): 0.764

NCI-H2087
relative viability (Irinotecan + OSI-027; first compound 0.6325 µM): 0.239
relative viability (Irinotecan + OSI-027; first compound 2 µM): 0.339
relative viability (Irinotecan + OSI-027; first compound 6.325 µM): 0.157
relative viability (Irinotecan + OSI-027; first compound 20 µM): 0.166
relative viability (RU-SKI 43 + Dasatinib; first compound 0.1 µM): 0.998
relative viability (RU-SKI 43 + Dasatinib; first compound 0.3162 µM): 1.48
relative viability (RU-SKI 43 + Dasatinib; first compound 1 µM): 0.866
relative viability (RU-SKI 43 + Dasatinib; first compound 3.162 µM): 0.938
relative viability (RU-SKI 43 + Dasatinib; first compound 10 µM): 0.943
relative viability (RU-SKI 43 + Luminespib; first compound 0.1 µM): 0.158
relative viability (RU-SKI 43 + Luminespib; first compound 0.3162 µM): 0.173
relative viability (RU-SKI 43 + Luminespib; first compound 1 µM): 0.193
relative viability (RU-SKI 43 + Luminespib; first compound 3.162 µM): 0.145
relative viability (RU-SKI 43 + Luminespib; first compound 10 µM): 0.131
relative viability (MK-8033 + Vorinostat; first compound 0.02 µM): 0.788
relative viability (MK-8033 + Vorinostat; first compound 0.06325 µM): 0.368
relative viability (MK-8033 + Vorinostat; first compound 0.2 µM): 0.749
relative viability (MK-8033 + Vorinostat; first compound 0.6325 µM): 0.728
relative viability (MK-8033 + Vorinostat; first compound 2 µM): 0.692

NCI-H2126
relative viability (Irinotecan + OSI-027; first compound 2 µM): 0.601
relative viability (Irinotecan + OSI-027; first compound 6.325 µM): 0.457
relative viability (Irinotecan + OSI-027; first compound 20 µM): 0.427
relative viability (RU-SKI 43 + Dasatinib; first compound 0.1 µM): 0.65
relative viability (RU-SKI 43 + Dasatinib; first compound 0.3162 µM): 0.652
relative viability (RU-SKI 43 + Dasatinib; first compound 1 µM): 0.681
relative viability (RU-SKI 43 + Dasatinib; first compound 3.162 µM): 0.67
relative viability (RU-SKI 43 + Dasatinib; first compound 10 µM): 0.586
relative viability (RU-SKI 43 + Luminespib; first compound 0.1 µM): 0.837
relative viability (RU-SKI 43 + Luminespib; first compound 0.3162 µM): 1.09
relative viability (RU-SKI 43 + Luminespib; first compound 1 µM): 1.11
relative viability (RU-SKI 43 + Luminespib; first compound 3.162 µM): 0.959
relative viability (RU-SKI 43 + Luminespib; first compound 10 µM): 0.891
relative viability (MK-8033 + Vorinostat; first compound 0.02 µM): 0.671
relative viability (MK-8033 + Vorinostat; first compound 0.06325 µM): 0.554
relative viability (MK-8033 + Vorinostat; first compound 0.2 µM): 0.72
relative viability (MK-8033 + Vorinostat; first compound 0.6325 µM): 0.798
relative viability (MK-8033 + Vorinostat; first compound 2 µM): 0.822
